Like-named read-outs stand apart in the source and are kept apart here.
Tests used:
[1] = test system: KG-1 cells (FGFR1-fusion); assay: KG-1 cancer cell line cell viability assay (CellTiter-Glo 2.0); format: cell-based; conditions: Homo sapiens, 72 hours, Cell Titer Glo 2.0
Method in brief: (§1)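 RT112/84, UM-UC-14 and KG-1 cells (10,000/well, RPMI1640 with 10% FBS) were treated with a 9-dose, 10-fold series starting at 30 μM, in triplicate, for 72 h at 37 °C. ATP was read by CellTiter-Glo 2.0 luminescence relative to DMSO controls, and IC50 was fitted with a 4-parameter sigmoidal model.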

[2] = target: FGFR1-BCR Ba/F3 cells (Homo sapiens, UniProt P11362); assay: Ba/F3 cell viability assay (CellTiter-Glo 2.0), FGFR1-BCR Ba/F3; format: cell-based
Chain of FGFR1-BCR Ba/F3 cells (P11362 22-822 limits assumed, change not shown): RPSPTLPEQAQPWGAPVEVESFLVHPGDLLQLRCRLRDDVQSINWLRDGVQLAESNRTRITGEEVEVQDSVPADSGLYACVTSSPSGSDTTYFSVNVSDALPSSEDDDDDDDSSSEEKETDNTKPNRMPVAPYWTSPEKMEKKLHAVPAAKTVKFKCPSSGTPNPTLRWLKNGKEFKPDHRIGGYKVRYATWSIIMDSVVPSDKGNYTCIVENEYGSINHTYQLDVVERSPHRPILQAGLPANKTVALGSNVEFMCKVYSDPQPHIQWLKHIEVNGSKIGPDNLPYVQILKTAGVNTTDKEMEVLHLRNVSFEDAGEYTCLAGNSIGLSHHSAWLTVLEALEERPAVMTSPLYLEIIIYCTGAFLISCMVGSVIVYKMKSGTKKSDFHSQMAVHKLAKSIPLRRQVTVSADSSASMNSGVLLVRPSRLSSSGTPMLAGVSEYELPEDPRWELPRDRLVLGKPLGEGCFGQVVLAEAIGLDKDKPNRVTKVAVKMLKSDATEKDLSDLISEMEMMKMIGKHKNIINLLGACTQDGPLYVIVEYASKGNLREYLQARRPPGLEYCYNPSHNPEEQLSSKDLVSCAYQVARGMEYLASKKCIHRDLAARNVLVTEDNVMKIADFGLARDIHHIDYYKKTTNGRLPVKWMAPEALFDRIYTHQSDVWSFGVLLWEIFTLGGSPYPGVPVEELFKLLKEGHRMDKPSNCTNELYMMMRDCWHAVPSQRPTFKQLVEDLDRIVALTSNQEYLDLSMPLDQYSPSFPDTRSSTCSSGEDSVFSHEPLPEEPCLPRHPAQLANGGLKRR
Method in brief: (§2)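 IL3-independent Ba/F3 lines driven by FGFR1-BCR or FGFR3-BAIAP2L1 fusions, in RPMI1640/10% FBS. 9-dose 10-fold series from 30 μM, triplicate, 48 h at 37 °C; viability by CellTiter-Glo 2.0 ATP luminescence relative to DMSO control, IC50 from 4-parameter sigmoidal fit.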

[3] = test system: RT112/84 cells (FGFR3-fusion); assay: RT112/84 cancer cell line cell viability assay (CellTiter-Glo 2.0); format: cell-based; conditions: Homo sapiens, 72 hours, Cell Titer Glo 2.0
Method in brief: as §1

[4] = target: FGFR3 (Homo sapiens (Human), UniProt P22607); assay: Kinase assay, binding constants (Kd), kinase-tagged T7 phage, qPCR
Chain of FGFR3 (P22607 23-806): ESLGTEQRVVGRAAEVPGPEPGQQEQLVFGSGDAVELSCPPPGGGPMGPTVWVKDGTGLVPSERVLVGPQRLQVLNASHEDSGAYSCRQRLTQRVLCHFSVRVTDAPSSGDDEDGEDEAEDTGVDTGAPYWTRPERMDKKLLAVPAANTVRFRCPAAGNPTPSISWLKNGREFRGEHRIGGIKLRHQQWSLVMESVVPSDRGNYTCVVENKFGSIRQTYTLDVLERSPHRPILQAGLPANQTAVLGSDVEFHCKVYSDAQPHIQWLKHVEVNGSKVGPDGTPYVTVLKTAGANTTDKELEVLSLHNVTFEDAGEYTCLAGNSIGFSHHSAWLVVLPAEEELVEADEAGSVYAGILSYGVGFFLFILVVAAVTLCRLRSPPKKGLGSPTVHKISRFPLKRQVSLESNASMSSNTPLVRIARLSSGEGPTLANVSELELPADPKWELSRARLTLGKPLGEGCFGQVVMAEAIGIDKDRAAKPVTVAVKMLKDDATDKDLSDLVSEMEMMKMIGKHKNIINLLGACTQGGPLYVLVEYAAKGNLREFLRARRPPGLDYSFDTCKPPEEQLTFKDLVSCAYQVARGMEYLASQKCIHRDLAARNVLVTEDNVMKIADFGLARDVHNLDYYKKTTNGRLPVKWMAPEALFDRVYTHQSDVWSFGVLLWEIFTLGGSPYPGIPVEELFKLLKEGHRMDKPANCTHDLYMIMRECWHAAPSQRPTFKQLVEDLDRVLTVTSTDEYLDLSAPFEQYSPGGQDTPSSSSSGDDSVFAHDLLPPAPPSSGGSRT
Method in brief: (§3)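 Competition binding: kinase-tagged T7 phage lysates mixed with immobilized biotinylated ligand on streptavidin beads plus compound (11-point 3-fold dilution series, 0.9% DMSO final). Bound kinase eluted with free ligand and quantified by qPCR. Kd from Hill equation fit, slope fixed at −1.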

[5] = target: FGFR2 (Homo sapiens (Human), UniProt P21802); assay: as above
Chain of FGFR2 (P21802 22-821): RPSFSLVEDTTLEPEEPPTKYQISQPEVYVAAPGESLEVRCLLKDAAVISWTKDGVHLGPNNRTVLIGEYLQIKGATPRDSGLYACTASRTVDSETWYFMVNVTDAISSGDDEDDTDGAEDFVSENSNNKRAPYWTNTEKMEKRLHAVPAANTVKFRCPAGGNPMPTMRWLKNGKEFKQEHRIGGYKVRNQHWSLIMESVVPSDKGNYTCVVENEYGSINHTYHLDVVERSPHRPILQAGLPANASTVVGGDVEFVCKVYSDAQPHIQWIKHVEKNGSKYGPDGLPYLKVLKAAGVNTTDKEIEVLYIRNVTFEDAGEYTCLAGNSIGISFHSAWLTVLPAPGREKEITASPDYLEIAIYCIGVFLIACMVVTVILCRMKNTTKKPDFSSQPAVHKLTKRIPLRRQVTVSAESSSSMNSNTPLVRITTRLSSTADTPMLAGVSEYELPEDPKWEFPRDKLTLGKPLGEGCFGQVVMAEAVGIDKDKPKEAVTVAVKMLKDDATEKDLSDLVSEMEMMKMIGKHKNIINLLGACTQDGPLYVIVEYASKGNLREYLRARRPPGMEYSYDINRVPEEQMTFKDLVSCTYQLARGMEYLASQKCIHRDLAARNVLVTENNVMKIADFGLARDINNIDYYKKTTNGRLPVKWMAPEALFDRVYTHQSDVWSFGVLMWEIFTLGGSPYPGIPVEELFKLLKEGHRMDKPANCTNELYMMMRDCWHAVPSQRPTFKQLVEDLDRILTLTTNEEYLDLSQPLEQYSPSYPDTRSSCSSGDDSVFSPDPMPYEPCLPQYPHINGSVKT
Method in brief: as §3

[6] = target: FGFR3 (V555M) (Homo sapiens (Human), UniProt P22607, V555M); assay: as above; conditions: V555M mutant
Chain of FGFR3 (V555M) (P22607 23-806 V555M): as the sequence (P22607 23-806) above, with V533M counted along it
Method in brief: as §3

[7] = target: FGFR1 (Homo sapiens (Human), UniProt P11362); assay: as above
Chain of FGFR1 (P11362 22-822): as the sequence (P11362 22-822 limits assumed, change not shown) above
Method in brief: as §3

[8] = target: FGFR4 (Homo sapiens (Human), UniProt P22455); assay: as above
Chain of FGFR4 (P22455 22-802): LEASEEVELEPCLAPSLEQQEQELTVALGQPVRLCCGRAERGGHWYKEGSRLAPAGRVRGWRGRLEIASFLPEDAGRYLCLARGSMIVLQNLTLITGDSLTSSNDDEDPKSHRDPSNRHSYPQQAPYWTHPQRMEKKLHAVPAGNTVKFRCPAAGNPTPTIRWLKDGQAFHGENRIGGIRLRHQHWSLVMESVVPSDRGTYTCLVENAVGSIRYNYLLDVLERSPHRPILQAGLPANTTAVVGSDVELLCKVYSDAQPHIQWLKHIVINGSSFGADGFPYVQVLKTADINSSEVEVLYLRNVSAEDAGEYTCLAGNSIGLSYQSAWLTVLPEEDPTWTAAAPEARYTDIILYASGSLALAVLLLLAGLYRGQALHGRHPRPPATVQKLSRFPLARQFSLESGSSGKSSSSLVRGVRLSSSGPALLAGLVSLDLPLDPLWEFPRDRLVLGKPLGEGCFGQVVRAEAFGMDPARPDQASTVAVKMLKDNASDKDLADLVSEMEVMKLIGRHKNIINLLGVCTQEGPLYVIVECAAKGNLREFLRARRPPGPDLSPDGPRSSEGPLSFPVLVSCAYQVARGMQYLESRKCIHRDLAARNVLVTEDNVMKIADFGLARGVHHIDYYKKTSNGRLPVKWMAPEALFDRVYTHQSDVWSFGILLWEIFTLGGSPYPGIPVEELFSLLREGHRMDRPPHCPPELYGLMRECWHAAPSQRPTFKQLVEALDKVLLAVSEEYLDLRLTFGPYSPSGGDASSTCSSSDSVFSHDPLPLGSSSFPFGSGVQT
Method in brief: as §3

[9] = target: FGFR3-BAIAP2L1 Ba/F3 cells (Homo sapiens, UniProt P22607); assay: Ba/F3 cell viability assay (CellTiter-Glo 2.0), FGFR3-BAIAP2L1 Ba/F3; format: cell-based
Chain of FGFR3-BAIAP2L1 Ba/F3 cells (P22607 23-806 limits assumed, change not shown): as the sequence (P22607 23-806) above
Method in brief: as §2

[10] = test system: UM-UC-14 cells (FGFR3(S249C)); assay: UM-UC-14 cancer cell line cell viability assay (CellTiter-Glo 2.0); format: cell-based; conditions: UMUC14, 72 hours, Cell Titer Glo 2.0
Method in brief: as §1

[11] = read-out: Ba/F3 Cells FGFR1 (IC50 nM), 48 hours, Cell Titer Glo 2.0
[12] = FGFR3 > FGFR1 selectivity ratio in Ba/F3 FGFR fusion cell based assays
[13] = read-out: Ba/F3 Cells FGFR3 (IC50 nM); FGFR3-BAIAP2L1 Ba/F3 cells, 48 hours, Cell Titer Glo 2.0

Row | Structure (SMILES) | IC50 [1] | IC50 [2, 11] | IC50 [3] | Kd [4] | Kd [5] | Kd [6] | Kd [7] | Kd [8] | Ba/F3 FGFR1/FGFR3 Selectivity [9, 12] | IC50 [9, 13] | IC50 [10] | IC50 ([2]; 48 hours, Cell Titer Glo 2.0, read-out: Ba/F3 Cells FGFR1 (IC50 nM)) | IC50 ([9]; FGFR3-BAIAP2L1 Ba/F3 cells, 48 hours, Cell Titer Glo 2.0; read-out: Ba/F3 Cells FGFR3 (IC50 nM))
1 | C[C@@H](Oc1ccc2[nH]nc(-c3ccc(N4CC5(CN(C(=O)N(C)C)C5)C4)nc3)c2c1)c1c(Cl)cncc1Cl [Example 47, 6-[5-[5-[(1R)-1-(3,5-dichloro-4-pyridyl)ethoxy]-1H-indazol-3-yl]-2-pyridyl]-N,N-dimethyl-2,6-diazaspiro[3.3]heptane-2-carboxamide] | 100 to 300 nM | 100 to 300 nM | 1 to 20 nM | 1 to 20 nM | 1 to 20 nM | 1 to 20 nM | 1 to 20 nM | 1 to 20 nM | 21 | 1 to 20 nM | 1 to 20 nM |  | 
2 | C[C@@H](Oc1ccc2[nH]nc(-c3cnc(N4CCNCC4)nc3)c2c1)c1c(Cl)cncc1Cl [Example 11, 5-[(1R)-1-(3,5-dichloro-4-pyridyl)ethoxy]-3-(2-piperazin-1-ylpyrimidin-5-yl)-1H-indazole] | 20 to 100 nM | 100 to 300 nM | 1 to 20 nM | 1 to 20 nM | 1 to 20 nM | 1 to 20 nM | 1 to 20 nM | 1 to 20 nM | 9 | 1 to 20 nM | 20 to 100 nM |  | 
3 | C[C@@H](Oc1ccc2[nH]nc(-c3ccc(N4CCN(C(=O)N5CCN(C)CC5)CC4)nc3)c2c1)c1c(Cl)cncc1Cl [Example 4, [4-[5-[5-[(1R)-1-(3,5-dichloro-4-pyridyl)ethoxy]-1H-indazol-3-yl]-2-pyridyl]piperazin-1-yl]-(4-methylpiperazin-1-yl)methanone] | 20 to 100 nM | 100 to 300 nM | 1 to 20 nM | 1 to 20 nM | 1 to 20 nM | 1 to 20 nM | 1 to 20 nM | 1 to 20 nM | 29 | 1 to 20 nM | 1 to 20 nM |  | 
4 | C[C@@H](Oc1ccc2[nH]nc(-c3ccc(N4CC5CC(C4)N5)nc3)c2c1)c1c(Cl)cncc1Cl [Example 16, 3-[6-(3,6-Diazabicyclo[3.1.1]heptan-3-yl)-3-pyridyl]-5-[(1R)-1-(3,5-dichloro-4-pyridyl)ethoxy]-1H-indazole] | 20 to 100 nM |  | 1 to 20 nM | 1 to 20 nM | 1 to 20 nM | 1 to 20 nM | 1 to 20 nM | 1 to 20 nM | 14 |  | 1 to 20 nM | > 300 nM | 20 to 100 nM
5 | C[C@@H](Oc1ccc2[nH]nc(-c3cnc(N4CCNCC4)c(F)c3)c2c1)c1c(Cl)cncc1Cl [Example 10, 5-[(1R)-1-(3,5-Dichloro-4-pyridyl)ethoxy]-3-(5-fluoro-6-piperazin-1-yl-3-pyridyl)-1H-indazole] | 20 to 100 nM | 20 to 100 nM | 1 to 20 nM | 1 to 20 nM | 1 to 20 nM | 1 to 20 nM | 1 to 20 nM | 1 to 20 nM | 9 | 1 to 20 nM | 1 to 20 nM |  | 
6 | C[C@@H](Oc1ccc2[nH]nc(-c3ccc(N4CCC5(CCCN5C)CC4)nc3)c2c1)c1c(Cl)cncc1Cl [Example 33, 8-[5-[5-[(1R)-1-(3,5-dichloro-4-pyridyl)ethoxy]-1H-indazol-3-yl]-2-pyridyl]-1-methyl-1,8-diazaspiro[4.5]decane] | 20 to 100 nM | 20 to 100 nM | 1 to 20 nM | 1 to 20 nM | 1 to 20 nM | 1 to 20 nM | 1 to 20 nM | 1 to 20 nM | 16 | 1 to 20 nM | 1 to 20 nM |  | 

From patent publication US20240109865A1, “INDAZOLE COMPOUNDS AS KINASE INHIBITORS” (TYRA BIOSCIENCES, INC., priority 2020, published 2024)
